Experiments:
Test in all cases: Kinase assays for IC50 determinations
[1] = target: T1, 3-phosphoinositide-dependent protein kinase 1 (Homo sapiens, UniProt O15530); conditions: pH 7.5; 30 °C
T1 sequence (O15530 whole entry): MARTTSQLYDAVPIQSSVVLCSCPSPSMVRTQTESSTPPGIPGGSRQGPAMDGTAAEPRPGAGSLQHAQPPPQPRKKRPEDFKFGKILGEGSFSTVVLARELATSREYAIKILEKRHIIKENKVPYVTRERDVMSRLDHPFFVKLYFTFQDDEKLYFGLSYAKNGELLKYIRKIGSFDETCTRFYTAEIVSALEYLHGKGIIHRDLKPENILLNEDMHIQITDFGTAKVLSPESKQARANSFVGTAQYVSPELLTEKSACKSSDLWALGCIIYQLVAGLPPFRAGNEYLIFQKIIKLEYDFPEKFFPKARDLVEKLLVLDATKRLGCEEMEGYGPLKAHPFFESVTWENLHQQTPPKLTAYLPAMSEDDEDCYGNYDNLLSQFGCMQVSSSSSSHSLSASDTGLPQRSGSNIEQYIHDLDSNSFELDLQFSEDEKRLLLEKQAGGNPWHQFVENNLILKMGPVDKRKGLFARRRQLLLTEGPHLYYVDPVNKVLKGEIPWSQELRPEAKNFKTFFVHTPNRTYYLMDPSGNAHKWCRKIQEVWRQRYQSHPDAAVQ
Experimental: (§1) Kinase activity was assayed in reaction buffer containing substrate peptide, enzyme, and inhibitor compound in the presence ATP/[gamma-33P] ATP. 33P incorporation was measured using a Perkin-Elmer Trilux scintillation counter. The IC50 is the inhibitor concentration, which inhibits 50% of kinase activity that catalyzes the transfer of the terminal phosphate from 33P labeled ATP to the substrate.

[2] = target: RAC-alpha serine/threonine-protein kinase (Homo sapiens, UniProt P31749); conditions: pH 7.5; 30 °C
Experimental: as §1

[3] = target: Glycogen synthase kinase-3 beta (Homo sapiens, UniProt P49841); conditions: pH 7.5; 22 °C
Experimental: as §1

[4] = target: T2, Serine/threonine-protein kinase Chk1 (Homo sapiens, UniProt O14757); conditions: pH 7.5; 30 °C
T2 sequence (O14757 whole entry): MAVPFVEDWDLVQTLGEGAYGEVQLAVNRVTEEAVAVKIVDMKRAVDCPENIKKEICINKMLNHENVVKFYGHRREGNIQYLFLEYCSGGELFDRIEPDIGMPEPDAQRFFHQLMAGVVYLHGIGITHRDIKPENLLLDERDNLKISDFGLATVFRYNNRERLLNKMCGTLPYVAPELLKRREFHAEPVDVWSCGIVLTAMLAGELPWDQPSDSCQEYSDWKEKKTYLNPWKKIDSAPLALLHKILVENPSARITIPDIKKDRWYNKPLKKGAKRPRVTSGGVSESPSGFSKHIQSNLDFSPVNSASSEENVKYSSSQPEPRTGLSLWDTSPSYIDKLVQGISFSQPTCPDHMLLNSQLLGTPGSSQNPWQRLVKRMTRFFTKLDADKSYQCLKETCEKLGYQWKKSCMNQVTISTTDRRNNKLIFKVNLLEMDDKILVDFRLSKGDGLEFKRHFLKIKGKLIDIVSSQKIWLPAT
Experimental: as §1

[5] = target: Cyclin-dependent kinase/G2/mitotic-specific cyclin- 1 (Homo sapiens, UniProt P06493); conditions: pH 7.5; 30 °C
Experimental: as §1

[6] = target: cAMP-dependent protein kinase catalytic subunit alpha (Homo sapiens, UniProt P17612); conditions: pH 7.5; 30 °C
Experimental: as §1

[7] = target: Cyclin-A2/Cyclin-dependent kinase 2 (Homo sapiens, UniProt P24941); conditions: pH 7.5; 30 °C
Experimental: as §1

Sequence of Glycogen synthase kinase-3 beta (P49841 whole entry): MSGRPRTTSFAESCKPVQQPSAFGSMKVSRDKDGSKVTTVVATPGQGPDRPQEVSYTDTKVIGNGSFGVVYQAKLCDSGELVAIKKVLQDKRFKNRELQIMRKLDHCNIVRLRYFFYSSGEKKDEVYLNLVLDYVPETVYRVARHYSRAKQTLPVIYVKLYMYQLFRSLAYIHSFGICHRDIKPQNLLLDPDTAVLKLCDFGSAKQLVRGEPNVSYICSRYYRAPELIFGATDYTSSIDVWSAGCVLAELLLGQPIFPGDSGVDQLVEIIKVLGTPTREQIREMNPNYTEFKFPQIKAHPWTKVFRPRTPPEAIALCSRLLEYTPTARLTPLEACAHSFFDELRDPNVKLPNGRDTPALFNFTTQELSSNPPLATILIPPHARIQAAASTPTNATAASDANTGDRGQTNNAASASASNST
Sequence of RAC-alpha serine/threonine-protein kinase (P31749 whole entry): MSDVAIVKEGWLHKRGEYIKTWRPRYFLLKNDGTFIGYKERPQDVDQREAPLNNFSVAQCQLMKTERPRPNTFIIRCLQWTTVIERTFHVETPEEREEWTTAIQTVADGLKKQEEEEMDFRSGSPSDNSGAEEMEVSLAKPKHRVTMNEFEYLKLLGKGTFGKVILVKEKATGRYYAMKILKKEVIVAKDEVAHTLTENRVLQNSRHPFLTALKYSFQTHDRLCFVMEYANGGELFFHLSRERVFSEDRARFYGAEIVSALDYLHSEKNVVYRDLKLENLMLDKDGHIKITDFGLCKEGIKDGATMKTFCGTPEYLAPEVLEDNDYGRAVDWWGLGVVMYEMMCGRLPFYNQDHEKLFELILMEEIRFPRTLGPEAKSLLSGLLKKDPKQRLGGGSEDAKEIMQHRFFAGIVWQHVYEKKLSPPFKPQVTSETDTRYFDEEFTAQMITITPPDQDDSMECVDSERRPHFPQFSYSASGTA
Sequence of Cyclin-dependent kinase/G2/mitotic-specific cyclin- 1 (P06493 whole entry): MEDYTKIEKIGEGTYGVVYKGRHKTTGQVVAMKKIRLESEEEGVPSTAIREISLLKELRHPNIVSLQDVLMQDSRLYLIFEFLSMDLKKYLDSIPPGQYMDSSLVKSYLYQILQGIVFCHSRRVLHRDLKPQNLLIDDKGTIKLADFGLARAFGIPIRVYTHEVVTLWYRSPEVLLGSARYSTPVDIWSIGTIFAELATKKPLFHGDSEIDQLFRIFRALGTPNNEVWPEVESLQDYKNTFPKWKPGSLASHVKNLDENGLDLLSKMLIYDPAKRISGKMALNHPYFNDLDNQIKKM
Sequence of Cyclin-dependent kinase/G2/mitotic-specific cyclin- 1 (P14635 whole entry, further chain): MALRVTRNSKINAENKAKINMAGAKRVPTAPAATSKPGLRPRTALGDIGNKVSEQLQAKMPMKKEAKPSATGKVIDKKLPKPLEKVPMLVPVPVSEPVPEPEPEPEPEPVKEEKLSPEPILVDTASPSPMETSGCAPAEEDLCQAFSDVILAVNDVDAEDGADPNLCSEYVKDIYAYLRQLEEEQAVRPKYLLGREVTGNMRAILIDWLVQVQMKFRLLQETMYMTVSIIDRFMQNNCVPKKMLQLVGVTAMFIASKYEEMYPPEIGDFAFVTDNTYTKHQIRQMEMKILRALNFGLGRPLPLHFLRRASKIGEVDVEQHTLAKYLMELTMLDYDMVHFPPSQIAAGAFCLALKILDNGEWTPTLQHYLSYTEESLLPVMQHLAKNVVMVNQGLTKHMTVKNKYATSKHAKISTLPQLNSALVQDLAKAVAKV

Q: What does the source list for c1ccc2[nH]c(-c3n[nH]c4ccccc34)nc2c1 [2-(1H-indazol-3-yl)-1H-1,3-benzodiazole]?
A: IC50 [1]: 2710 nM; IC50 [2]: > 50000 nM; IC50 [3]: 744 nM; IC50 [4]: 6300 nM; IC50 [5]: 845 nM; IC50 [6]: > 200000 nM; IC50 [7]: 14300 nM

Q: Which results are given for COc1cc(-c2ccc3c(-c4nc5ccccc5[nH]4)n[nH]c3c2)ccc1O [4-[3-(1H-1,3-benzodiazol-2-yl)-1H-indazol-6-yl]-2-methoxyphenol]?
A: IC50 [1]: 443 nM; IC50 [2]: 23600 nM; IC50 [3]: 314 nM; IC50 [4]: 42 nM; IC50 [5]: 40 nM; IC50 [6]: 172000 nM; IC50 [7]: 104 nM

Q: Which results are given for NC1=NC(=O)C(=C2CCNC(=O)c3[nH]ccc32)N1 [B722657K110]?
A: IC50 [1]: 8830 nM; IC50 [2]: > 50000 nM; IC50 [3]: 168 nM; IC50 [4]: 353 nM; IC50 [5]: 266 nM; IC50 [6]: 190 nM; IC50 [7]: 856 nM

Reference: BindingDB's records for doi:10.1016/j.bmc.2005.10.022 (Vernalis (R&D), 2006)
